Data as given in ChEMBL document CHEMBL1201862, “PubChem BioAssay data set” (2004).
Active and inactive are the calls of the source.

How the values were obtained:
[1] = target: Cytochrome P450 2D6 (Homo sapiens, UniProt P10635);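 further: CYP2D6 member of a cytochrome P450 panel assay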
[2] = target: Cytochrome P450 2C19 (Homo sapiens, UniProt P33261); assay: Cytochrome panel assay with activity outcomes. Panel member name: p450-cyp2c19 Compounds with AC50 equal or less than 10 uM are considered active; assay type: functional
Cytochrome P450 2C19, sequence (P33261 whole entry): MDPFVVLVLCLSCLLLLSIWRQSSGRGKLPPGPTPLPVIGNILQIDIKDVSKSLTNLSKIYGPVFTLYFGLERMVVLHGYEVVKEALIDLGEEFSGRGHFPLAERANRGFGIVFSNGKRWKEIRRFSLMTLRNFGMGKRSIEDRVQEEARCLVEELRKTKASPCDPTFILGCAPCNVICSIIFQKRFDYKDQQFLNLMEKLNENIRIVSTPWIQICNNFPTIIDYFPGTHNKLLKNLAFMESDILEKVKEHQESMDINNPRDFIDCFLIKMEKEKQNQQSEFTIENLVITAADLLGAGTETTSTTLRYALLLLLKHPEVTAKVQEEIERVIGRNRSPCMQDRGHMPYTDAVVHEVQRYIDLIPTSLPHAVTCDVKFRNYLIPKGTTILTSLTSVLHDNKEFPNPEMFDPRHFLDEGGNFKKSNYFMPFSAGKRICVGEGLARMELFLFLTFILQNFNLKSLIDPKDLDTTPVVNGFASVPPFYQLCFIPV

[3] = target: T1, Corticotropin-releasing factor receptor 2/Corticotropin-releasing factor-binding protein (Homo sapiens, UniProt P24387+Q13324); assay: activators of CRF receptor 2 with binding protein – uHTS hits, confirmation (AID 602473); assay type: functional; details: read-out: EC50_Mean
T1 sequence (Q13324 whole entry): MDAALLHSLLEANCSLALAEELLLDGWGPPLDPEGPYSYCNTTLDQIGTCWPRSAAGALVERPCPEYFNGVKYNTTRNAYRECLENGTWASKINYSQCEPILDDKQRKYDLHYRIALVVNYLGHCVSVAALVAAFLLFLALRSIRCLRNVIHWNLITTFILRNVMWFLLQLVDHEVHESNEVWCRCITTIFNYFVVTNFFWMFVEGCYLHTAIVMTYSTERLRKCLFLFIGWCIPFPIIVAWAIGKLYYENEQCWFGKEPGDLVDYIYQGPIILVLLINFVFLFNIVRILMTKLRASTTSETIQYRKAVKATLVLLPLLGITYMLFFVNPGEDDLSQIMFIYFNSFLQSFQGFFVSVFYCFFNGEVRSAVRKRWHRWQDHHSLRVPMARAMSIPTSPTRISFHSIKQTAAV
T1 sequence (P24387 whole entry): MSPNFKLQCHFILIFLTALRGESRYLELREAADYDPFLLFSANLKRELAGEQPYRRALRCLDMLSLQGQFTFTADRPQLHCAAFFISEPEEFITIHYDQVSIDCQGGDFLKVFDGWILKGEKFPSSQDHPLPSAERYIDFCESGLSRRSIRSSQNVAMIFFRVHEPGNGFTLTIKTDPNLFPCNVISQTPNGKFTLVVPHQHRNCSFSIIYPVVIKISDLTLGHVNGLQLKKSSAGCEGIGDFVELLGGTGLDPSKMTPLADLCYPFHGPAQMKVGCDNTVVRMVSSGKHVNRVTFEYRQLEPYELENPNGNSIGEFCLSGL

[4] = system: INS1; assay: beta cell apoptosis inhibitors, cytokine rescue, dose response, luminescence, retest (AID 449756); assay type: functional, cell-based; details: Rattus norvegicus;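 further: cell death triggered by IL-1 beta plus TNF-alpha plus IFN-gamma mixture; protective hits raise ATP signal compared with cytokine alone wells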
[5] = target: Cytochrome P450 3A4 (Homo sapiens, UniProt P08684);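 further: CYP3A4 tested as one member of a cytochrome P450 panel screen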
Cytochrome P450 3A4, sequence (P08684 whole entry): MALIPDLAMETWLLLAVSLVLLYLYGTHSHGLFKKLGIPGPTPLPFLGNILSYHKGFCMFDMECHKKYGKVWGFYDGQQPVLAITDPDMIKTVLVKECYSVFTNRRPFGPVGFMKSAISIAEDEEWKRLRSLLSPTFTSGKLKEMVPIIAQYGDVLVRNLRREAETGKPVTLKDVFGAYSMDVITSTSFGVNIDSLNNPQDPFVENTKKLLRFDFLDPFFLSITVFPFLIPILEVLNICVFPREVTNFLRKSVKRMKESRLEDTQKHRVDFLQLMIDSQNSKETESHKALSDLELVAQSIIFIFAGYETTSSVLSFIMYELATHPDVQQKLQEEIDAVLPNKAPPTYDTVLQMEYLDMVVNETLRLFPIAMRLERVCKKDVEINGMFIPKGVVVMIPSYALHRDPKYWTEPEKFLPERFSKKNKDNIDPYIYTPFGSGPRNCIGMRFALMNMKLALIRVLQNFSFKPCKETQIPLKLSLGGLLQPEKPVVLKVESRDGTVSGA

[6] = target: T2, Rac GTPase-activating protein 1 (Homo sapiens, UniProt Q9H0H5); assay: MgcRacGAP GTPase-activating activity inhibitors, confirmation, biochemical, ADP Hunter fluorescence, primary and confirmatory (AID 624330); assay type: functional
T2 sequence (Q9H0H5 whole entry): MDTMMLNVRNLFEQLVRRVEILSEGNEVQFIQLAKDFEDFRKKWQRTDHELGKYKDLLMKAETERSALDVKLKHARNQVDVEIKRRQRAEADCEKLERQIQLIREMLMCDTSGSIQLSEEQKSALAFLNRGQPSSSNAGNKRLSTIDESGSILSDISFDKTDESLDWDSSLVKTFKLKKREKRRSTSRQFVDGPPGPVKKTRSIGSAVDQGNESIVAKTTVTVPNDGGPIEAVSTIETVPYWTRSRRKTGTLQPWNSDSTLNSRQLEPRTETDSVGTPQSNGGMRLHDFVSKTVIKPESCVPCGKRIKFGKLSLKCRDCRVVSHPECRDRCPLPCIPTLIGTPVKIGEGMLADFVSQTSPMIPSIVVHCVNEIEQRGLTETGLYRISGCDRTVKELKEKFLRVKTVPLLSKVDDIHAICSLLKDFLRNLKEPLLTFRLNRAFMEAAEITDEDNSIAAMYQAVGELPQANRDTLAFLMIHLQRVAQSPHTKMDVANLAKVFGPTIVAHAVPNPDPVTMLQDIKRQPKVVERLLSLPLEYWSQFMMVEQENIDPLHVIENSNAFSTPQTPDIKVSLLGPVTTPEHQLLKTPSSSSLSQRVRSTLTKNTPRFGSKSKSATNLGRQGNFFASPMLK

[7] = inhibitors of intracellular T. cruzi replication, confirmation, NIH3T3 host cells, beta-gal luminescence (AID 2044); assay type: functional, cell-based;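 further: intracellular parasites grown in NIH/3T3 mouse fibroblasts as host cells; luminescent beta-galactosidase reporter signal from transgenic T. cruzi replicating inside host cells; inhibitors lower the luminescence signal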
[8] = cytotoxicity toward NIH3T3 fibroblasts, dose response, counter-screen, cell-based, ATP luminescence, mouse fibroblasts (AID 2010); assay type: functional;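 further: cells exposed to compound for about 90 hours before reading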

Cytochrome P450 2D6, sequence (P10635 whole entry): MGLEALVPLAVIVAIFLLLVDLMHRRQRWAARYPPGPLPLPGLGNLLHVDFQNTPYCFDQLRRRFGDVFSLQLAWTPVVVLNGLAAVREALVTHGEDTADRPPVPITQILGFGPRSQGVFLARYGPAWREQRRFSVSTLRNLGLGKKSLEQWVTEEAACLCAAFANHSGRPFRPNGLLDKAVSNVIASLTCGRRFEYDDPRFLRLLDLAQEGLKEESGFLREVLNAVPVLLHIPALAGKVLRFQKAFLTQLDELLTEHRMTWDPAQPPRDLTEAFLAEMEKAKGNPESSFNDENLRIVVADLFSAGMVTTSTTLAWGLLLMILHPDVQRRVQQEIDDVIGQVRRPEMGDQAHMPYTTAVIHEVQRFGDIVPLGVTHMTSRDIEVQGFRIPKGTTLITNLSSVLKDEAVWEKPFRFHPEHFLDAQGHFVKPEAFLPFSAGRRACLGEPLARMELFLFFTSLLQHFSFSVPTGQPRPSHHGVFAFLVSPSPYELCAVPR

CCc1cccc2nc3c(c([Si](C)(C)C)c12)Cn1c-3cccc1=O
AC50 [1]: 39.8 µM (inconclusive) | AC50 ([2]; read-out: AC50): 39.8 µM (inconclusive)

C=CCN1C(c2cccc(C(F)(F)F)c2)=CS/C1=C(/C#N)c1nnc(N2CCOCC2)n1-c1ccccc1
EC50 [3]: > 53 µM (inactive)

CSCCC(NC(=O)c1ccco1)C(=O)OC(C)C(=O)NC(=O)NC1CCCCC1 (stereo unspecified)
EC50 [3]: 0.832 µM (active)

CCC(=O)Nc1ccc2c(c1)C(=O)c1ccccc1C2=O
AC50 ([2]; read-out: AC50): 7.94 µM (inconclusive)

Cc1cc(NC(=O)c2cccc(F)c2)no1
AC50 ([2]; read-out: AC50): 31.6 µM (inconclusive)

CN1/C(=C\C(S)=Nc2ccccc2)C(C)(C)c2ccccc21
AC50 [4]: 8.05 µM (active)

COc1cccc([C@@H]2Oc3ccc(OC)cc3/C(=N/O[C@@H](C)CN3CCCCc4nc(C)c(C)cc43)[C@@H]2O)c1
AC50 [1]: 3.16 µM (inconclusive) | AC50 ([2]; read-out: AC50): 0.0126 µM (inconclusive)

COc1ccc(NC(=O)N2CC3(CCN(C(C)=O)CC3)C2)cc1
AC50 [1]: 12.6 µM (inconclusive)

O=C1/C(=C\c2ccccn2)SC(=S)N1Nc1ncc(C(F)(F)F)cc1Cl
AC50 [1]: 17.8 µM (inconclusive)

Cc1ccc(S(=O)(=O)/C=C\C#N)cc1
AC50 [5]: 39.8 µM (inconclusive)

COc1cc(CN2CCC(C(=O)NC3CCCC3)CC2)ccc1O
IC50 [6]: 133 µM (active)

CC(C)(C)c1ccc(C(=O)NCCC(=O)NCc2ccco2)cc1
AC50 [1]: 22.4 µM (inconclusive) | AC50 ([2]; read-out: AC50): 7.94 µM (inconclusive)

c1ccc(C2=NN[C@@H]3c4ccccc4-c4ccccc4N3C2)cc1
AC50 [5]: 3.16 µM (inconclusive)

N#C/C(=C(/O)COC(=O)c1ccccc1O)c1nc2ccccc2s1
EC50 [3]: > 53 µM (inactive)

COc1ccc(-c2cc(C(=O)Nc3nc4c(C)cccc4s3)c3ccccc3n2)cc1OC
AC50 [5]: 11.2 µM (inconclusive)

CCOC(=O)C1CCN(C(=O)C2CCN(S(=O)(=O)N3CCCC3)CC2)CC1
AC50 [2]: inconclusive

CCOC(=O)C1(CC2CCCCO2)CCN(Cc2cc3ccccc3[nH]2)CC1 (stereo unspecified)
EC50 [3]: 7.87 µM (active)

CCCNC(=O)c1ccc(N2CCC3(CC2)CC(c2cccc(Br)c2)=NO3)c(NC(=O)c2ccccc2)c1
EC50 [7]: 2.5 µM (active) | EC50 [8]: > 60 µM (not active)

COc1ccc(NC2CCCN(C(=O)CCN3Cc4ccccc4C3=O)C2)cc1 (stereo unspecified)
IC50 [6]: 65.1 µM (active)

Cn1c(=O)c2nc(S)n(Cc3ccccc3)c2n(C)c1=O
IC50 [6]: 19.5 µM (active)

Cc1ccc(N(C(=O)C(F)(F)F)C(C(=O)NC2CCCCC2)c2cccs2)cc1C (stereo unspecified)
AC50 ([2]; read-out: AC50): 0.0355 µM (inconclusive)

CN1CCc2c(sc(/N=C/c3cccs3)c2C(N)=O)C1
EC50 [3]: > 53 µM (inactive)

CCOC(=O)C1CCN(Cc2cccc(Oc3ccccc3)c2)CC1
IC50 [6]: 342 µM (active)

COc1cccc(C(=O)Oc2c(Br)cc(Br)cc2/C=N/NC(=O)c2cc(C)[nH]n2)c1
AC50 [4]: 3.11 µM (active) | EC50 [7]: 0.942 µM (active) | EC50 [8]: 8.01 µM (active)

CCCNC1=NC(=O)N(C)C(=O)/C1=N/O
AC50 [1]: 39.8 µM (inconclusive) | AC50 ([2]; read-out: AC50): 28.2 µM (inconclusive)

C/C(Cn1nnc([N+](=O)[O-])n1)=N\NC(=O)c1ccccc1Cl
AC50 [4]: 10.5 µM (active) | EC50 [7]: 0.47 µM (active) | EC50 [8]: > 60 µM (not active)

Brc1csc(/C=N\c2ccc3c(c2)OCCOCCOCCOCCO3)c1
IC50 [6]: 75.2 µM (active)

C=CCN1C(=O)CS/C1=N/c1ccc(O)cc1
IC50 [6]: 25.8 µM (active)

COc1ccccc1/C=N/OCc1cc(C(C)=O)ccc1OC
AC50 [4]: 44.6 µM (active)

c1ccc(Nc2nc(-c3ccncc3)cs2)cc1
EC50 [7]: 0.544 µM (active) | EC50 [8]: > 60 µM (not active)

Ic1ccc(N2CCN(Cc3c[nH]c4ncccc34)CC2)cc1
AC50 [5]: 39.8 µM (inconclusive)
